Patent US4634782A, “7-fluoro-dihydro PGI compounds” (Hoffmann-La Roche Inc., priority 1985, dated 1987)
Structures can show the parent of a compound that is named as a salt. Where two headings read alike, the source gives them in different places.

Columns and labels:
[1] = system: human platelet rich plasma (PRP); assay: Inhibition of blood platelet aggregation in human platelet rich plasma (PRP), test of Professor Born, optical density; assay type: cell-based; conditions: 0.45 ml human PRP, two separate tests, two donors
Description: That the 7-fluoro prostacyclins are potent blood platelet anti-aggregating agents can be seen when the following compounds:
were tested against PGI2 for their blood platelet anti-aggregation properties by the standard test described by Professor Born in Nature, 194 927, (1962).
In this test, the ability of the above compounds to inhibit aggregation of blood platelets in 0.45 ml of human platelet rich plasma (PRP) was measured. Aggregation was induced by the addition of any one of arachidonic acid (AA), platelet activating factor (PAF) or collagen. PAF and its synthesis is disclosed by Hirth and Barner in Helv. Chim. Acta. Vol. 65; Fasc. 3, page 1059 (1982) [Compound 1-a on page 1061]. By titration of AA, collagen and PAF at various concentrations in 0.45 ml samples of PRP, the minimum amount of AA, collagen and PAF which produces maximum blood platelet aggregation in a given sample of human platelet rich plasma (PRP) was determined. This minimum amount was used when the compounds set forth above were tested for their ability to inhibit blood platelet aggregation in samples of PRP as described below.
In carrying out the tests, various concentrations of the test compound were added to separate samples of human platelet rich plasma (PRP). To each of these samples of PRP containing a specific concentration of one of the above test compounds, there was added the minimum amount of AA, PAF, or collagen calculated above. The controls are samples of PRP containing no test compound but only the minimum amount of AA, PAF, or collagen determined above. The percent aggregation of the various samples was determined by measuring the optical density of the samples and comparing them with the optical density of the controls. This determination was made two minutes after the maximum first phase response of PAF, AA or collagen. This determination was made with freshly prepared samples of test compounds. A second determination was made in the same manner with samples of PRP two hours after the addition of AA, PAF or collagen. The IC50, the dose at which the optical density of the samples decrease to a value which is fifty (50%) percent of the value of the control was determined by the method disclosed by Professor Born's article. The IC50 values for the minimum dose were made from concentration response curve. These IC50 's were determined in two separate tests using PRP from two separate donors. The results of the minimum dose of each of the test compounds which reduces fifty (50%) percent of the aggregation of the platelets produced by any one of AA, PAF, or collagen is set forth in the following Table: […]

[2] = system: cyclic AMP in human platelet rich plasma (PRP); assay: Cyclic AMP production in human blood platelets (platelet rich plasma), protein binding method of Brown et al.; assay type: cell-based; conditions: 0.1 mM, percent increase in cyclic AMP compared to basal (vehicle alone), pH 7.4, 22 C, read-out: Cyclic AMP Production, o/o stimulative of Basal at 0.1 mM
Description: Cyclic AMP prevents aggregation of blood platelets. Through increasing cyclic AMP, the compounds of this invention prevent blood platelet aggregation. That the compounds of this invention increase cyclic AMP can be seen from the following test.
In this test, human platelet rich plasma (PRP) was prepared by centrifugation of blood treated with 0.38% by weight sodium citrate at 180×g (times gravity) for ten minutes. The PRP ([…] containing approximately 2×10^7 platelets) is incubated for two minutes at 22 C, with and without the test compound, in a Tris-HCl buffer for ten minutes pH 7.4 containing 5.5 mM HCl, 1 mM Mg SO4, 5 mM Na2 H PO4, 120 mM NaCl, and 5.5 mM glucose in a fluid volume of […]. The reaction was terminated by placing the samples in boiling water for 3 minutes. The boiled extract was assayed for cyclic AMP by the protein binding method of Brown et al. (Biochemical Journal 121:561-562, 1971). The activity of this test compound at 0.1 mM is measured as the percent increase in cyclic AMP production compared to base 1 (vehicle alone) production.

[3] = Platelet, aggregation induced by minimum amount of arachidonic acid (AA), read-out: Aggregation IC50, AA
[4] = aggregation induced by minimum amount of platelet activating factor (PAF), read-out: Aggregation IC50, PAF
[5] = Platelet, aggregation induced by minimum amount of collagen, read-out: Aggregation IC50, Collagen

Compound	IC50 [1, 3] [nM]	IC50 [1, 4] [nM]	activation at 100 µM [2] [%]	IC50 [1, 5] [nM]
CCCCC[C@H](O)CC[C@@H]1[C@@H]2[C@H](C[C@H]1O)O/C(=C\CCCC(=O)O)[C@H]2F [Compound A, (5Z,7beta,9alpha,11alpha,15S)-6,9-epoxy-7-fluoro-11,15-dihydroxy-prost-5-en-1-oic acid monosodium salt]	23	15	998	
CCCC[C@H](F)[C@H](O)CC[C@@H]1[C@@H]2[C@H](C[C@H]1O)O/C(=C\CCCC(=O)O)[C@H]2F [Compound B, (5Z,7beta,9alpha,11alpha,15R,16S)-6,9-epoxy-7,16-difluoro-11,15-dihydroxy-prost-5-en-1-oic acid monosodium salt]	20	6		6
CCCCC[C@H](O)/C=C/[C@@H]1[C@H]2C/C(=C/CCCC(=O)O)O[C@H]2C[C@H]1O [PGI2, reference compound]	0.45	0.15		2
